Experimental data reported in US20100099561A1, “HETEROBICYCLIC ALKYLTHIO-BRIDGED ISOXAZOLINES” (E.I. DU PONT DE NEMOURS AND COMPANY, priority 2008, published 2010).

Experiments:
Format in all cases: in vivo
[1] = test system: rice (Oryza sativa); test: Test B flooded paddy test, rice; conditions: Flood, scale 0 to 100
In short: (§1)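 Rice, umbrella sedge, ducksalad and barnyardgrass at 2-leaf stage; pots flooded to 3 cm, compounds applied into paddy water, depth held throughout. Greenhouse 13 to 15 days, then visual rating vs untreated controls on 0–100 scale (0 no effect, 100 complete control); dash means no test result.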

[2] = test system: pigweed (Amaranthus retroflexus); test: Test B preemergence, pigweed; conditions: scale 0 to 100
Excerpt: (§2) Seeds of plant species selected from blackgrass (Alopecurus myosuroides), downy bromegrass (Bromus tectorum), green foxtail (Setaria viridis), Italian ryegrass (Lolium multiflorum), wheat (Triticum aestivum), wild oat (Avena fatua), catchweed bedstraw (Galium aparine), bermudagrass (Cynodon dactylon), Surinam grass (Brachiaria decumbens), cocklebur (Xanthium strumarium), corn (Zea mays), large crabgrass (Digitaria sanguinalis), woolly cupgrass (Eriochloa villosa), giant foxtail (Setaria faberii), goosegrass (Eleusine indica), johnsongrass (Sorghum halepense), kochia (Kochia scoparia), lambsquarters (Chenopodium album), morningglory (Ipomoea coccinea), nightshade (eastern black nightshade, Solanum ptycanthum), yellow nutsedge (Cyperus esculentus), pigweed (Amaranthus retroflexus), ragweed (common ragweed, Ambrosia elatior), soybean (Glycine max), sunflower (common oilseed sunflower, Helianthus annuus), Russian thistle (Salsola kali), and velvetleaf (Abutilon theophrasti) were planted into a blend of loam soil and sand and treated preemergence with test compounds formulated in a non-phytotoxic solvent mixture which included a surfactant. Treated plants and controls were maintained in a greenhouse for 13 to 15 days, after which time all species were compared to controls and visually evaluated. Plant response ratings, summarized in Table B, are based on a scale of 0 to 100 where 0 is no effect and 100 is complete control. A dash (-) response means no test result.

[3] = test system: goosegrass (Eleusine indica); test: Test B preemergence, goosegrass; conditions: scale 0 to 100
Excerpt: as §2

[4] = test system: lambsquarters (Chenopodium album); test: Test B preemergence, lambsquarters; conditions: scale 0 to 100
Excerpt: as §2

[5] = test system: giant foxtail (Setaria faberii); test: Test B preemergence, giant foxtail; conditions: scale 0 to 100
Excerpt: as §2

[6] = test system: corn (Zea mays); test: Test A postemergence, corn; conditions: 0 to 100 scale (0 no effect, 100 complete control)
In short: (§3)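 Seeds sown in loam soil–sand blend; test chemicals in non-phytotoxic solvent mixture with surfactant applied preemergence as directed soil spray, or postemergence to plants 2–10 cm tall at one- to two-leaf stage. Greenhouse, ~10 days; visual injury rated against untreated controls, 0 (no effect) to 100 (complete control).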

[7] = test system: catchweed bedstraw (Galium aparine); test: Test B preemergence, catchweed bedstraw; conditions: scale 0 to 100
Excerpt: as §2

[8] = test system: barnyardgrass (Echinochloa crus-galli); test: Test B flooded paddy test, barnyardgrass; conditions: Flood
In short: as §1

[9] = test system: pigweed (Amaranthus retroflexus); test: Test A preemergence, pigweed; conditions: 0 to 100 scale (0 no effect, 100 complete control)
In short: as §3

[10] = test system: blackgrass (Alopecurus myosuroides); test: Test B preemergence, blackgrass; conditions: scale 0 to 100
Excerpt: as §2

[11] = test system: wheat (Triticum aestivum); test: Test B preemergence, wheat; conditions: Preemergence, scale 0 to 100
Excerpt: as §2

[12] = test system: nightshade (eastern black nightshade, Solanum ptycanthum); test: Test B preemergence, nightshade; conditions: scale 0 to 100
Excerpt: as §2

[13] = test system: umbrella sedge (Cyperus difformis); test: Test B flooded paddy test, umbrella sedge; conditions: Flood, scale 0 to 100
In short: as §1

[14] = test system: sunflower (common oilseed sunflower, Helianthus annuus); test: Test B preemergence, sunflower; conditions: Preemergence, scale 0 to 100
Excerpt: as §2

[15] = test system: large crabgrass (Digitaria sanguinalis); test: Test A postemergence, large crabgrass; conditions: 0 to 100 scale (0 no effect, 100 complete control)
In short: as §3

[16] = test system: wheat (Triticum aestivum); test: Test A postemergence, wheat; conditions: 0 to 100 scale (0 no effect, 100 complete control)
In short: as §3

[17] = test system: wheat (Triticum aestivum); test: Test A preemergence, wheat; conditions: 0 to 100 scale (0 no effect, 100 complete control)
In short: as §3

[18] = test system: velvetleaf (Abutilon theophrasti); test: Test A preemergence, velvetleaf; conditions: 0 to 100 scale (0 no effect, 100 complete control)
In short: as §3

[19] = test system: cocklebur (Xanthium strumarium); test: Test B preemergence, cocklebur; conditions: scale 0 to 100
Excerpt: as §2

[20] = 250 g ai/ha, scale 0 to 100 (0 no effect, 100 complete control)

Compound: CC1(C)CC(S(=O)(=O)Cc2c(C(F)(F)F)nc3n(c2=O)CCS3)=NO1 [Compound 6]
- Plant response rating, Rice ([1]; 62 g ai/ha): 20
- Plant response rating, Rice ([1]; 250 g ai/ha): 20
- Plant response rating, Pigweed ([2]; 16 g ai/ha): 0
- Plant response rating, Pigweed ([2]; 31 g ai/ha): 50
- Plant response rating, Pigweed ([2]; 62 g ai/ha): 100
- Plant response rating, Pigweed ([2]; 125 g ai/ha): 100
- Plant response rating, Goosegrass ([3]; 16 g ai/ha): 100
- Plant response rating, Goosegrass ([3]; 31 g ai/ha): 100
- Plant response rating, Goosegrass ([3]; 62 g ai/ha): 100
- Plant response rating, Goosegrass ([3]; 125 g ai/ha): 100
- Plant response rating, Lambsquarters ([4]; 16 g ai/ha): 0
- Plant response rating, Lambsquarters ([4]; 31 g ai/ha): 20
- Plant response rating, Lambsquarters ([4]; 62 g ai/ha): 90
- Plant response rating, Lambsquarters ([4]; 125 g ai/ha): 95
- Plant response rating, Foxtail, Giant ([5]; 16 g ai/ha): 0
- Plant response rating, Foxtail, Giant ([5]; 31 g ai/ha): 95
- Plant response rating, Foxtail, Giant ([5]; 62 g ai/ha): 100
- Plant response rating, Foxtail, Giant ([5]; 125 g ai/ha): 100
- Plant response rating, Corn ([6]; 125 g ai/ha): 0
- Plant response rating, Corn ([6]; 500 g ai/ha): 0
- Plant response rating, Galium ([7]; 16 g ai/ha): 0
- Plant response rating, Galium ([7]; 31 g ai/ha): 50
- Plant response rating, Galium ([7]; 62 g ai/ha): 50
- Plant response rating, Galium ([7]; 125 g ai/ha): 100
- Plant response rating, Barnyardgrass ([8]; 62 g ai/ha, scale 0 to 100): 0
- Plant response rating, Barnyardgrass [8, 20]: 0
- Plant response rating, Pigweed ([9]; 125 g ai/ha): 60
- Plant response rating, Pigweed ([9]; 500 g ai/ha): 100
- Plant response rating, Blackgrass ([10]; 16 g ai/ha): 50
- Plant response rating, Blackgrass ([10]; 31 g ai/ha): 80
- Plant response rating, Blackgrass ([10]; 62 g ai/ha): 95
- Plant response rating, Blackgrass ([10]; 125 g ai/ha): 95
- Plant response rating, Wheat ([11]; 16 g ai/ha): 0
- Plant response rating, Wheat ([11]; 31 g ai/ha): 0
- Plant response rating, Wheat ([11]; 62 g ai/ha): 0
- Plant response rating, Wheat ([11]; 125 g ai/ha): 0
- Plant response rating, Nightshade ([12]; 16 g ai/ha): 0
- Plant response rating, Nightshade ([12]; 31 g ai/ha): 45
- Plant response rating, Nightshade ([12]; 62 g ai/ha): 95
- Plant response rating, Nightshade ([12]; 125 g ai/ha): 98
- Plant response rating, Sedge, Umbrella ([13]; 62 g ai/ha): 0
- Plant response rating, Sedge, Umbrella ([13]; 250 g ai/ha): 75
- Plant response rating, Sunflower ([14]; 16 g ai/ha): 0
- Plant response rating, Sunflower ([14]; 31 g ai/ha): 0
- Plant response rating, Sunflower ([14]; 62 g ai/ha): 0
- Plant response rating, Sunflower ([14]; 125 g ai/ha): 0
- Plant response rating, Crabgrass, Large ([15]; 125 g ai/ha): 80
- Plant response rating, Crabgrass, Large ([15]; 500 g ai/ha): 90
- Plant response rating, Wheat ([16]; 125 g ai/ha): 20
- Plant response rating, Wheat ([16]; 500 g ai/ha): 30
- Plant response rating, Wheat ([17]; 125 g ai/ha): 0
- Plant response rating, Wheat ([17]; 500 g ai/ha): 0
- Plant response rating, Velvetleaf ([18]; 125 g ai/ha): 0
- Plant response rating, Velvetleaf ([18]; 500 g ai/ha): 80
- Plant response rating, Cocklebur ([19]; 16 g ai/ha): 0
- Plant response rating, Cocklebur ([19]; 31 g ai/ha): 0
- Plant response rating, Cocklebur ([19]; 62 g ai/ha): 0
- Plant response rating, Cocklebur ([19]; 125 g ai/ha): 0

Compound: CC1(C)CC(S(=O)(=O)Cc2c(C(F)(F)F)nc3n(c2=O)CCCC3)=NO1 [Compound 8, 3-[[(4,5-dihydro-5,5-dimethyl-3-isoxazolyl)sulfonyl]methyl]-6,7,8,9-tetrahydro-2-(trifluoromethyl)-4H-pyrido[1,2-α]pyrimidin-4-one]
- Plant response rating, Rice ([1]; 62 g ai/ha): 0
- Plant response rating, Rice ([1]; 250 g ai/ha): 0
- Plant response rating, Pigweed ([2]; 16 g ai/ha): 0
- Plant response rating, Pigweed ([2]; 31 g ai/ha): 20
- Plant response rating, Pigweed ([2]; 62 g ai/ha): 95
- Plant response rating, Pigweed ([2]; 125 g ai/ha): 100
- Plant response rating, Goosegrass ([3]; 16 g ai/ha): 98
- Plant response rating, Goosegrass ([3]; 31 g ai/ha): 98
- Plant response rating, Goosegrass ([3]; 62 g ai/ha): 100
- Plant response rating, Goosegrass ([3]; 125 g ai/ha): 100
- Plant response rating, Lambsquarters ([4]; 16 g ai/ha): 55
- Plant response rating, Lambsquarters ([4]; 31 g ai/ha): 98
- Plant response rating, Lambsquarters ([4]; 62 g ai/ha): 100
- Plant response rating, Lambsquarters ([4]; 125 g ai/ha): 100
- Plant response rating, Foxtail, Giant ([5]; 16 g ai/ha): 80
- Plant response rating, Foxtail, Giant ([5]; 31 g ai/ha): 90
- Plant response rating, Foxtail, Giant ([5]; 62 g ai/ha): 98
- Plant response rating, Foxtail, Giant ([5]; 125 g ai/ha): 100
- Plant response rating, Corn ([6]; 125 g ai/ha): 0
- Plant response rating, Corn ([6]; 500 g ai/ha): 60
- Plant response rating, Galium ([7]; 16 g ai/ha): 0
- Plant response rating, Galium ([7]; 31 g ai/ha): 0
- Plant response rating, Galium ([7]; 62 g ai/ha): 100
- Plant response rating, Galium ([7]; 125 g ai/ha): 100
- Plant response rating, Barnyardgrass ([8]; 62 g ai/ha, scale 0 to 100): 0
- Plant response rating, Barnyardgrass [8, 20]: 0
- Plant response rating, Pigweed ([9]; 125 g ai/ha): 30
- Plant response rating, Pigweed ([9]; 500 g ai/ha): 100
- Plant response rating, Blackgrass ([10]; 16 g ai/ha): 0
- Plant response rating, Blackgrass ([10]; 31 g ai/ha): 90
- Plant response rating, Blackgrass ([10]; 62 g ai/ha): 90
- Plant response rating, Blackgrass ([10]; 125 g ai/ha): 100
- Plant response rating, Wheat ([11]; 16 g ai/ha): 0
- Plant response rating, Wheat ([11]; 31 g ai/ha): 0
- Plant response rating, Wheat ([11]; 62 g ai/ha): 0
- Plant response rating, Wheat ([11]; 125 g ai/ha): 40
- Plant response rating, Nightshade ([12]; 16 g ai/ha): 0
- Plant response rating, Nightshade ([12]; 31 g ai/ha): 65
- Plant response rating, Nightshade ([12]; 62 g ai/ha): 75
- Plant response rating, Nightshade ([12]; 125 g ai/ha): 98
- Plant response rating, Sedge, Umbrella ([13]; 62 g ai/ha): 0
- Plant response rating, Sedge, Umbrella ([13]; 250 g ai/ha): 20
- Plant response rating, Sunflower ([14]; 16 g ai/ha): 0
- Plant response rating, Sunflower ([14]; 31 g ai/ha): 15
- Plant response rating, Sunflower ([14]; 62 g ai/ha): 40
- Plant response rating, Sunflower ([14]; 125 g ai/ha): 45
- Plant response rating, Crabgrass, Large ([15]; 125 g ai/ha): 60
- Plant response rating, Crabgrass, Large ([15]; 500 g ai/ha): 90
- Plant response rating, Wheat ([16]; 125 g ai/ha): 20
- Plant response rating, Wheat ([16]; 500 g ai/ha): 60
- Plant response rating, Wheat ([17]; 125 g ai/ha): 0
- Plant response rating, Wheat ([17]; 500 g ai/ha): 60
- Plant response rating, Velvetleaf ([18]; 125 g ai/ha): 20
- Plant response rating, Velvetleaf ([18]; 500 g ai/ha): 90
- Plant response rating, Cocklebur ([19]; 16 g ai/ha): 0
- Plant response rating, Cocklebur ([19]; 31 g ai/ha): 0
- Plant response rating, Cocklebur ([19]; 62 g ai/ha): 0
- Plant response rating, Cocklebur ([19]; 125 g ai/ha): 0
